# From article PMC8955265, “Systematic Discovery of FBXW7-Binding Phosphodegrons Highlights Mitogen-Activated Protein Kinases as Important Regulators of Intracellular Protein Levels” (International Journal of Molecular Sciences, 2022)
# Test system: FBXW7
# Test: Ratiometric EGFP/DsRed protein degradation assay with degron probes
# Assay type: cell-based, human
# Settings: putative degron motif in EGFP-fused probe with AAKG2 MAPK docking motif; HEK293T, 48 h after transfection, EGFP/DsRed ratio with and without FBXW7 plasmid; search cycles 1-4
# Text: In order to be able to test putative phosphodegron motifs, a ratiometric protein level monitoring method was adapted to monitor MAPK controlled FBXW7 mediated protein degradation. Briefly, intact DsRed and an EGFP-chimera were expressed in HEK293T cells in equal amounts from an expression plasmid, giving an EGFP/DsRed fluorescence ratio close to one under non-degrading conditions. EGFP was fused to a probe comprised of a putative degron sequence and a known MAPK binding docking motif. EGFP signal is expected to diminish faster than DsRed in cells with more FBXW7 if the probe responded to degradation.
# We started out from an intentionally general consensus motif of FBXW7 degrons, inspired by the liberal [TS]P..[TS]P pattern defined for yeast Cdc4 substrates, and scanned the human disordered part of the proteome using SliMSearch4 (the disorder score cut-off was 0.4 and flank length was 5). In all, 22 motifs from this list were subjectively chosen and tested in the ratiometric degradation assay giving only 5 positives (see Supplementary Table S1). Based on the results of this first round, by taking information both from the identified positives and negatives, the consensus motif definition was narrowed to requiring a proline at P + 2, but motifs were allowed to have a phospho-mimicking residue (D or E) at P + 4 because it had been formerly reported that this second phosphorylatable residue may be replaced by aspartate or glutamate. […] In the third round, hydrophobic amino acids were more strictly required at positions −1/−2 and P − 1/2/3 positions were further narrowed and P + 4 position was relaxed based on the identified negatives, which gave a higher hit rate (4 out of 6). This third round gave functional motifs at a good rate, but the used motif definition was very restrictive compared to other known motifs. Finally, in the fourth round, we gave up using an optimal consensus and established the positional relaxation model. […] Hits on this final, most predictive list are presented in Supplementary Table S2. All entries were filtered for motif locations by UniProt annotations, discarding all enzyme-inaccessible (e.g., extracellular) instances. Motifs that had any overlapping PFAM domain indicated were manually assessed using the AlphaFold EBI website. Out of these, only motifs that were highly accessible and located outside of confidently predicted folded domains were kept. We also added kinase consensus compatibility to every motif and the number of experiments where phosphorylation could be detected from PhosphoSitePlus.
# The chimera degron module was ordered from IDT as gene Block (gBlock). It consisted of a coiled coil dimerization motif (GCN4: EELLSKNYHLENEVARLKK) to increase sensitivity by allowing multivalent binding, a MAPK binding docking motif (AAKG2: KKNASQKRRSLRVHIPDL), and the CycECO degron motif. The motifs were separated by Gly-Ser-Asn linkers and the gBlock was designed so that the motifs could be easily changed by using unique sets of restriction endonucleases. The gBlock was sub-cloned into the Gateway pENTR4 entry plasmid (Thermo Fisher, Waltham, MA, USA) using restriction enzymes (SalI and NotI). The pENTR4-chimera and the destination plasmid (MSCV-CMV-DsRed-IRES-EGFP-DEST from Addgene; 41941), [28]) were subjected to gateway cloning using LR clonase II enzyme (Invitrogen) to obtain the first DsRed-EGFP-chimera DNA construct containing the cycECO degron. Oligonucleotides corresponding to different degron sequences and docking motifs were ligated into the DsRed-EGFP-chimera DNA construct. The list of all the oligonucleotides used for cloning is provided in Supplementary Table S3. pcDNA3-FLAG-FBXW7α was a kind gift from Michael Pagano (New York University). The FBXW7 arginine mutant (Arg mutant: R465C; R479Q; R505L) was created using two-step PCR and cloned into the pcDNA3-FLAG plasmid. […]
row,Sequence,Outcome
1,"AHELPLTPPADPSYPY [SP5, putative FBXW7 degron motif tested as EGFP-fused degradation probe]","Positive (tested positive, where +FBXW7/control protein level ratio was lower than 1)"
2,"AIRQSPSPPPEESRG [PDE4A, putative FBXW7 degron motif tested as EGFP-fused degradation probe]",Negative
3,"AKEFAPATPPSTPHNSSV [AKAP11-2nd, putative FBXW7 degron motif tested as EGFP-fused degradation probe]",Negative
4,"APPIPSPPPSPPPSPAPLEP [CAMTA2, putative FBXW7 degron motif tested as EGFP-fused degradation probe]","Positive (tested positive, where +FBXW7/control protein level ratio was lower than 1)"
5,"ASPTPPSPPPPPSPPASPSLPP [PP1R37, putative FBXW7 degron motif tested as EGFP-fused degradation probe]",Negative
6,"AVRTPPRTPNIV [KSR2-a, putative FBXW7 degron motif tested as EGFP-fused degradation probe]",Negative
7,"AVVRTPPKSPSSAK [Tau, putative FBXW7 degron motif tested as EGFP-fused degradation probe]",Negative
8,"DLLAALPTPPHNQTEDV [KMT2D-3rd, putative FBXW7 degron motif tested as EGFP-fused degradation probe]","Positive (tested positive, where +FBXW7/control protein level ratio was lower than 1)"
9,"DRNVIPDTPPSTPLVPSR [AKAP11-1st, putative FBXW7 degron motif tested as EGFP-fused degradation probe]","Positive (tested positive, where +FBXW7/control protein level ratio was lower than 1)"
10,"ELDLMPYTPPQSTPKSA [PBRM1, putative FBXW7 degron motif tested as EGFP-fused degradation probe]",Negative
11,"EQPSHTPPQTPTPPSTPPLGKQ [ARHGAP17, putative FBXW7 degron motif tested as EGFP-fused degradation probe]",Negative
12,"FSYQESPPRSPRRMSFSG [AAKG2, putative FBXW7 degron motif tested as EGFP-fused degradation probe]",Negative
13,"GEAAGSPVPTPPRSPAQEE [Bcl2L12, putative FBXW7 degron motif tested as EGFP-fused degradation probe]",Negative
14,"GEGDRGVSPPPSPFFSAI [FRY, putative FBXW7 degron motif tested as EGFP-fused degradation probe]",Negative
15,"GGHLESPARSLPQRP [FAAP20, putative FBXW7 degron motif tested as EGFP-fused degradation probe]",Negative
16,"GQAATPETPQPSPPGGSGS [HNF4, putative FBXW7 degron motif tested as EGFP-fused degradation probe]",Negative
17,"GSDGASPPASPSIIPR [MAP3K10, putative FBXW7 degron motif tested as EGFP-fused degradation probe]",Negative
18,"IHQAGGSPPASSTSSS [RAPTOR, putative FBXW7 degron motif tested as EGFP-fused degradation probe]",Negative
19,"KHSNSPPLVTPPQSPVSPQPPA [SMTL2, putative FBXW7 degron motif tested as EGFP-fused degradation probe]","Positive (tested positive, where +FBXW7/control protein level ratio was lower than 1)"
20,"KMSQPGSPSPKTPTPSTPGDTQ [CHD4, putative FBXW7 degron motif tested as EGFP-fused degradation probe]",Negative
21,"KQFLISPPASPPVGWKQV [RCAN1, putative FBXW7 degron motif tested as EGFP-fused degradation probe]",Negative

row,Sequence,Outcome
1,"KTGEQTPPHEHICLRDELP [JIP1, putative FBXW7 degron motif tested as EGFP-fused degradation probe]",Negative
2,"LGPVHPTPPPSSPQEP [KMT2D-a, putative FBXW7 degron motif tested as EGFP-fused degradation probe]",Negative
3,"MVQRLGLISPPASQVSTA [GLIS3, putative FBXW7 degron motif tested as EGFP-fused degradation probe]",Negative
4,"NYGARPPPTPPASPPPSV [KMT2E, putative FBXW7 degron motif tested as EGFP-fused degradation probe]","Positive (tested positive, where +FBXW7/control protein level ratio was lower than 1)"
5,"PLGPPATPPGSPPCSLL [PKMYT1, putative FBXW7 degron motif tested as EGFP-fused degradation probe]",Negative
6,"PPEESPLSPPPEASRLS [KMT2D-b, putative FBXW7 degron motif tested as EGFP-fused degradation probe]",Negative
7,"PPLQVPPSPPASPPMSPS [PRR36, putative FBXW7 degron motif tested as EGFP-fused degradation probe]","Positive (tested positive, where +FBXW7/control protein level ratio was lower than 1)"
8,"PRPPRPPSPPPEPETTD [SETD1B, putative FBXW7 degron motif tested as EGFP-fused degradation probe]",Negative
9,"PSFPPTPPTPPASPPHTPV [EIF4G3, putative FBXW7 degron motif tested as EGFP-fused degradation probe]","Positive (tested positive, where +FBXW7/control protein level ratio was lower than 1)"
10,"PSTTVGSHSPPETPVLTR [ZMYND1 or 8, putative FBXW7 degron motif tested as EGFP-fused degradation probe]",Negative
11,"QGQKVGSLTPPSSPKTQRA [AAK1, putative FBXW7 degron motif tested as EGFP-fused degradation probe]",Negative
12,"QGYLSPESSPPASPVPACS [CREB5, putative FBXW7 degron motif tested as EGFP-fused degradation probe]",Negative
13,"QQAPLTPPNTPDPRSPPNPDNIA [Myozenin2, putative FBXW7 degron motif tested as EGFP-fused degradation probe]","Positive (tested positive, where +FBXW7/control protein level ratio was lower than 1)"
14,"RPALPATPPATPPAASP [CDT1, putative FBXW7 degron motif tested as EGFP-fused degradation probe]","Positive (tested positive, where +FBXW7/control protein level ratio was lower than 1)"
15,"SAVQTPPSPPVSPRVLS [PCARE, putative FBXW7 degron motif tested as EGFP-fused degradation probe]",Negative
16,"SDLDKTPPPSPPPEED [CHD7, putative FBXW7 degron motif tested as EGFP-fused degradation probe]",Negative
17,"SPFHGSSPPQSTPLSPPPLTPK [DOCK5, putative FBXW7 degron motif tested as EGFP-fused degradation probe]",Negative
18,"SPGDSPPGTPPASPPSSAWQ [TBC1D4, putative FBXW7 degron motif tested as EGFP-fused degradation probe]",Negative
19,"SRNHSPSPPVTPTGAA [NHSL1, putative FBXW7 degron motif tested as EGFP-fused degradation probe]",Negative
20,"STKRKPRVSPPASPTLEVE [SH3RF1, putative FBXW7 degron motif tested as EGFP-fused degradation probe]",Negative
